Experimental data published in paper PMC12006031, “Inhibitory Effect of Whey Protein‐Derived Peptide Leu‐Asp‐Gln‐Trp on Xanthine Oxidase” (Food Science & Nutrition, 2025).
Like-named read-outs stand apart in the source and are kept apart here. Residues, ends and D or L forms follow the SMILES beside them. No end group written: not given here.

Columns and labels:
xanthine oxidase (XO) = settings: cited from earlier work; for IC50: literature value, ref He et al. [2019], Mao et al. [2023], Xu, Liu, et al. [2024], read-out: IC50 (XO inhibition)
XO from bovine milk [1] = biological target: T1, XO from bovine milk (Bos taurus, UniProt P80457); experiment: XO inhibitory activity by absorptiometry (absorbance at 290 nm, microplate reader); format: biochemical; settings: for Suppression of the absorbance increase / enzymatic reaction compared with control (relative absorbance): 290 nm every 5 min for 30 min, Figure 2; for Concentration with significant XO inhibition: vs. control, p < 0.01, one-way ANOVA, Tukey-Kramer; for Concentration with significant XO inhibition / Concentration dependence of XO inhibitory activity: absorptiometry
T1 construct: XO from bovine milk and xanthine were purchased from Sigma‐Aldrich Corp. (MO, USA); purchased Sigma‐Aldrich Corp. (MO, USA); host or cells: bovine milk (natural source)
Protocol: (§1) Tryptophan and leucine were obtained from Kanto Chemical Co. Ltd. (Tokyo, Japan). The evaluation samples such as peptides and amino acids, and allopurinol (FUJIFILM Wako Pure Chemical Corp., Tokyo, Japan) as a positive control for the evaluation method, were suspended in 0.1 M phosphate buffer pH 7.2 (FUJIFILM Wako Pure Chemical Corp., Tokyo, Japan) containing 0.1 M sodium chloride. The samples were obtained for the assay after sonication for 10 min. XO from bovine milk and xanthine were purchased from Sigma‐Aldrich Corp. (MO, USA). […] The xanthine solution was prepared by diluting it with buffer at a ratio of 1:10.
2.2 Enzymatic Reaction and Monitoring of Absorbance Using a Microplate Reader
(§2) Briefly, the samples (e.g., LDQW) or allopurinol were mixed with the XO solution (final concentration: 25 U/L). A mixture added to the buffer instead of the sample was analyzed as a control. […] The sample, XO solution, and xanthine solution were reacted in a 2:1:1 ratio. The assay was performed in triplicate. The XO inhibitory activity was calculated using the following equation: XOinhibitory activity%=1−AbS30min−AbS0min/AbC30min−AbC0min×100
AbS30min : Absorbance of the sample at 30 min.
AbS0min : Absorbance of the sample at 0 min.
AbC30min : Absorbance of the control at 30 min.
AbC0min : Absorbance of the control at 0 min.
(§3) All experiments were performed in triplicate, with data indicated as mean ± standard deviation (SD). […] One‐way analysis of variance (ANOVA) was used for parametric analyses, followed by the Tukey–Kramer test. p values of < 0.05 were considered statistically significant.

XO from bovine milk [2] = biological target: T1, XO from bovine milk; experiment: XO inhibitory activity by LC-MS/MS quantification of uric acid; format: biochemical; settings: for XO inhibitory activity (inhibition ratio): 20 mM, UA by LC-MS/MS (PRM m/z 169.03/70.04) after 30 min, XO 25 U/L, xanthine 0.42 mM, 0.1 M phosphate buffer pH 7.2 containing 0.1 M sodium chloride, mean ± SD; for XO inhibitory activity (inhibition ratio) / Concentration with significant XO inhibition / Significance of XO inhibition at any concentration: n = 3; for Concentration dependence of XO inhibition: Figure 5 or Figure 6; for Concentration with significant XO inhibition: vs. control, Figure 5; for Concentration with significant XO inhibition / Significance of XO inhibition at any concentration: one-way ANOVA, Tukey-Kramer; for Significance of XO inhibition at any concentration: tryptophan Figure 5, leucine Figure 6
Protocol: as §1, §2
2.3 Determination of XO Inhibitory Activity Using LC–MS/MS
To halt the enzymatic reaction, an equal volume of 1 M HCl, purchased from Kanto Chemical Co. Ltd. (Tokyo, Japan), was promptly added to the mixture after the absorbance was monitored for 30 min (Figure 1A). The mixture was then diluted 50‐fold with water containing 0.2% (v/v) formic acid (FA), which was purchased from Kanto Chemical Co. Ltd. (Tokyo, Japan), to prepare analytical samples for LC–MS/MS. UA in the analytical samples was measured using a Vanquish Ultra‐High‐Performance LC system coupled with a Vanquish variable wavelength detector VF‐D40 and a Q Exactive Focus (Thermo Fisher Scientific Inc., MA, USA). UA in the analytical samples was separated using an XBridge Peptide BEH C18 Column (2.1 mm i.d. × 250 mm, 3.5 μm, Waters Inc., MA, USA).
UA separation was achieved using 0.1% (v/v) FA in water (solvent A) and 0.1% FA in methanol (solvent B, Kanto Chemical Co. Ltd., Tokyo, Japan) with the following gradient over 22 min: 2% B for 5 min, increased from 2% to 10% B over 3 min, from 10% to 80% B over 2 min, held at 80% B for 2 min, decreased from 80% to 2% B over 0.1 min and held at 2% B for 10 min. The column temperature and flow rate were maintained at 40°C and 0.2 mL/min, respectively. During separation, the absorbance was monitored at 290 nm.
MS detection was performed in positive ion mode. […] The peak area detected at a retention time of 4.3 min was analyzed using Thermo Scientific Xcalibur. UA was quantified using the absolute calibration curve method, which was constructed from the peak areas of UA at various concentrations. XO inhibitory activity was calculated as [1 − UAs/UAc] × 100%, where UAs and UAc represent the amount of UA in the samples and control, respectively.
as §3

[3] = tested on: rat model of hyperuricemia; settings: ref Qi et al. [2023], [2024]; cited from earlier work
Description: As study limitations, the mechanism for alleviating hyperuricemia is known to involve not only XO activity inhibition but also other factors, such as UA excretion promotion and UA reabsorption inhibition (Cicero et al. [2021]).

[4] = tested on: rat model of hyperuricemia; settings: orally administered, ref He et al. [2024], Qi et al. [2022a]; cited from earlier work
Description: There have been numerous reports on bioactive peptides with XO inhibitory activity.

[5] = 20 mM, absorbance at 290 nm, 0-30 min, XO 25 U/L, xanthine 0.42 mM, 0.1 M phosphate buffer pH 7.2 containing 0.1 M sodium chloride, mean ± SD, n = 3, Figure 3
[6] = experiment of Figure 6 (DQW fragment)
[7] = 1-20 mM tested, n = 3, Figure 3

T1 sequence (P80457 whole entry): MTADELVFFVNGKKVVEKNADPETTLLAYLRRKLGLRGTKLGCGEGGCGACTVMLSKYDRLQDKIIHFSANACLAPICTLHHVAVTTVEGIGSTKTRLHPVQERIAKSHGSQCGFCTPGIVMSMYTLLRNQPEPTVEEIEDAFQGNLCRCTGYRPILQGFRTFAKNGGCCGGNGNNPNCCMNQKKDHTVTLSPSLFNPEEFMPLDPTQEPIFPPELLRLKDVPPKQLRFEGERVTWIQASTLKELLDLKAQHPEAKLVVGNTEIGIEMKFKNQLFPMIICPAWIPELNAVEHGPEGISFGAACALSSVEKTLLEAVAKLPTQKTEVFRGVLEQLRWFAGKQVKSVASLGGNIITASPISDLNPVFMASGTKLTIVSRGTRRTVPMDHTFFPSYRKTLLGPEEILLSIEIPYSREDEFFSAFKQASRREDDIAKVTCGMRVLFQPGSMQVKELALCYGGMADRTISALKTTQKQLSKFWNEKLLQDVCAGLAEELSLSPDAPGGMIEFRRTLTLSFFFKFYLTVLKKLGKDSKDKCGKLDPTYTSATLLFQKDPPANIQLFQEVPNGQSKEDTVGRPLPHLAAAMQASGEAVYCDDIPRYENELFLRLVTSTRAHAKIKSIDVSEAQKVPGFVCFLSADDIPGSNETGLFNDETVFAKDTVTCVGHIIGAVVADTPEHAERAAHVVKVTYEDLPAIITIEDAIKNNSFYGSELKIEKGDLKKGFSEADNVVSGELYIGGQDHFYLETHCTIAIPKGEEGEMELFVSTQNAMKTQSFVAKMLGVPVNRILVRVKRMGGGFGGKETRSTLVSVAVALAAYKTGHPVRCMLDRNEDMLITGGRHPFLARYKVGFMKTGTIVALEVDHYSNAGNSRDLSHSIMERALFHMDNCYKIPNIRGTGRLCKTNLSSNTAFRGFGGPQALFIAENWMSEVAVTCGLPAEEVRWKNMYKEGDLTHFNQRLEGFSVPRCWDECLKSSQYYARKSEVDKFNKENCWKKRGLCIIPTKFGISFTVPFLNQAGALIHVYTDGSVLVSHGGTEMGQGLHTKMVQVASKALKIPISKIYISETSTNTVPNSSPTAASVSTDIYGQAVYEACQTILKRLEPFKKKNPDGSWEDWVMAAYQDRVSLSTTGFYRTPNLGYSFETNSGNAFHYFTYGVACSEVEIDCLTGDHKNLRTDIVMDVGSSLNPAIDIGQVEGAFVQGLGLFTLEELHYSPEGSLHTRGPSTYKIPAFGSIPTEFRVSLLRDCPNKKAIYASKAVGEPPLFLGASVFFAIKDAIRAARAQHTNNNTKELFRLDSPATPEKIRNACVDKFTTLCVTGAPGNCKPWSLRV

Ala‐Met
IC50 (xanthine oxidase (XO)): 40.5 mM

YNITGW
IC50 (xanthine oxidase (XO)): 9.8 mM

Ala‐Leu
IC50 (xanthine oxidase (XO)): 34.5 mM

CC(C)C[C@H](N)C(=O)N[C@@H](CC(=O)O)C(=O)N[C@@H](CCC(N)=O)C(=O)N[C@@H](Cc1c[nH]c2ccccc12)C(=O)O [LDQW, Leu‐Asp‐Gln‐Trp] (H-LDQW-OH)
inhibition at 20000 µM (XO from bovine milk [1]; [5]): 96.4% | XO inhibitory activity (inhibition ratio) (XO from bovine milk [2]; experiment of Figure 5): 58.0% ± 2.8 | XO inhibitory activity (inhibition ratio) (XO from bovine milk [2]; [6]): 57.9% ± 3.2

Leu‐Leu‐Trp [LLW]
XO inhibition reported earlier (xanthine oxidase (XO); ref Qi et al. [2023], [2024]): known for their XO inhibitory activities | Expression of genes related to UA synthesis in the liver [3]: reduce the expression of genes related to UA synthesis in the liver | Gene expression for UA excretion in the kidneys [3]: enhance gene expression for UA excretion in the kidneys

Pro‐Met
IC50 (xanthine oxidase (XO)): 23.8 mM

Ala‐Leu‐Pro‐Met [ALPM, milk protein-derived peptide used for comparison]
XO inhibition reported earlier (xanthine oxidase (XO); ref Qi et al. [2022a], [2022b]): inhibit XO | XO inhibitory activity (XO from bovine milk [1]; [5]): 25.2% ± 1.9 | Suppression of the absorbance increase / enzymatic reaction compared with control (relative absorbance) (XO from bovine milk [1]; n = 3): suppressed this increase compared with the control | Concentration with significant XO inhibition (XO from bovine milk [1]; [7]): 20 mM | Renal dysfunction [4]: improve renal dysfunction | Serum uric acid (SUA) levels [4]: reduce SUA levels | XO inhibitory activity (inhibition ratio) (XO from bovine milk [2]; experiment of Figure 5): 45.0% ± 1.0 | Concentration dependence of XO inhibition (XO from bovine milk [2]; LC-MS/MS): increase in the inhibition ratio in a concentration‐dependent manner | Concentration with significant XO inhibition (XO from bovine milk [2]; LC-MS/MS): ≥ 5 mM

Phe‐His
IC50 (xanthine oxidase (XO)): 25.7 mM

Gly‐Leu
IC50 (xanthine oxidase (XO)): 10.2 mM

Pro‐Glu‐Trp [PEW, peptide derived from milk proteins]
XO inhibition reported earlier (xanthine oxidase (XO); ref Qi et al. [2022a], [2022b]): inhibit XO | XO inhibition reported earlier (xanthine oxidase (XO); ref Qi et al. [2023], [2024]): known for their XO inhibitory activities | Expression of genes related to UA synthesis in the liver [3]: reduce the expression of genes related to UA synthesis in the liver | Gene expression for UA excretion in the kidneys [3]: enhance gene expression for UA excretion in the kidneys

Oc1ncnc2[nH]ncc12 [allopurinol]
XO inhibition reported earlier (xanthine oxidase (XO); ref Klein et al. [1996]): reported to have XO inhibitory activity | Suppression of the absorbance increase / enzymatic reaction compared with control (relative absorbance) (XO from bovine milk [1]; n = 3): suppressed the increase in absorbance in a concentration‐dependent manner | Concentration dependence of XO inhibitory activity (XO from bovine milk [1]; Figure 3): increased with rising concentrations in a concentration‐dependent manner | Concentration with significant XO inhibition (XO from bovine milk [1]; allopurinol positive control, 1-50 μM tested, n = 3, Figure 3): ≥ 0.001 mM | Concentration dependence of XO inhibition (XO from bovine milk [2]; LC-MS/MS): significantly inhibited XO activity in a concentration‐dependent manner | Concentration with significant XO inhibition (XO from bovine milk [2]; allopurinol positive control, LC-MS/MS): ≥ 0.001 mM

Asp‐Gln‐Trp [DQW]
XO inhibitory activity (inhibition ratio) (XO from bovine milk [2]; [6]): 48.4% ± 8.5 | XO inhibitory activity in comparison with another peptide (XO from bovine milk [2]; LC-MS/MS): comparable to that of LDQW | Concentration dependence of XO inhibition (XO from bovine milk [2]; LC-MS/MS): significantly inhibited XO activity in a concentration‐dependent manner

N[C@@H](Cc1c[nH]c2ccccc12)C(=O)O [tryptophan]
inhibition at 20000 µM (XO from bovine milk [1]; [5]): 95.2% | Suppression of the absorbance increase / enzymatic reaction compared with control (relative absorbance) (XO from bovine milk [1]; n = 3): the enzymatic reaction by XO was suppressed compared with the control | Concentration dependence of XO inhibitory activity (XO from bovine milk [1]; Figure 3): increased with rising concentrations in a concentration‐dependent manner | Concentration with significant XO inhibition (XO from bovine milk [1]; [7]): ≥ 1 mM | XO inhibitory activity (inhibition ratio) (XO from bovine milk [2]; experiment of Figure 5): 4.4% ± 3.7 | Significance of XO inhibition at any concentration (XO from bovine milk [2]; LC-MS/MS): did not exhibit significant XO inhibition at any concentration

CC(C)C[C@H](N)C(=O)O [leucine]
Significance of XO inhibition at any concentration (XO from bovine milk [2]; LC-MS/MS): no significant XO inhibition was observed
